Reference: patent US9409905B2, “Antibacterial compounds and methods for use” (PTC THERAPEUTICS, INC., priority 2011, dated 2016)
In brackets after ≈: the same amount, converted by molar mass.

Legend:
[1] = test system: Escherichia coli (E. coli) BAS849; test: Antibacterial activity, microbroth dilution MIC (Table 1); type: cell-based; details: microbroth dilution, super sensitive Gram-negative E. coli BAS849, read-out: MIC, BAS849
Method in brief: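 Lowest concentration stopping macroscopically visible growth under test conditions, by broth microdilution, defines the MIC (μg/mL).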

[2] = test system: Staphylococcus aureus (S. aureus) 29213; test: as above; type: cell-based; details: microbroth dilution, Gram-positive S. aureus 29213, read-out: MIC, 29213
Method in brief: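 Microbroth dilution was used. MIC, in μg/mL, is the lowest drug concentration preventing macroscopically visible growth under the test conditions.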

[3] = test system: Pseudomonas aeruginosa (P. aeruginosa) 27853; test: Antibacterial activity, MIC (Table 5); type: cell-based; details: P. aeruginosa 27853, read-out: MIC, 27853
Method in brief: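 MIC in μg/mL from broth microdilution; endpoint is the lowest drug level giving no visible growth.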

[4] = test system: Acinetobacter baumannii (A. baumannii) BAA747; test: Antibacterial activity, MIC (Table 4); type: cell-based; details: A. baumannii BAA747, read-out: MIC, BAA747
Method in brief: (§1)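 Activity was measured by microbroth dilution. The MIC, in μg/mL, is the lowest drug concentration that prevents macroscopically visible growth under the test conditions. The resistant strains are multi-drug resistant clinical isolates.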

[5] = test system: Klebsiella pneumoniae (K. pneumoniae) 35657; test: Antibacterial activity, MIC (Table 4); type: cell-based; details: K. pneumoniae 35657, read-out: MIC, 35657
Method in brief: as §1

K. pneumoniae MXX1232 = test: Antibacterial activity, MIC, resistant strain (Table 4); type: cell-based; details: Klebsiella pneumoniae, MXX1232; resistant K. pneumoniae MMX1232, multi-drug resistant clinical isolate; read-out: MIC, MMX1232
Method in brief: as §1

A. baumannii MXX2240 = test: as above; type: cell-based; details: Acinetobacter baumannii, MXX2240; resistant A. baumannii MMX2240, multi-drug resistant clinical isolate; read-out: MIC, MMX2240
Method in brief: as §1

E. coli 25922 = test: Antibacterial activity, microbroth dilution MIC (Table 1); type: cell-based, Escherichia coli; details: Escherichia coli; microbroth dilution; control Gram-negative E. coli 25922 strain; read-out: MIC, 25922
Method in brief: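 Using broth microdilution, MIC endpoints (μg/mL) mark where visible growth no longer appears; the panel spans sensitive and control Gram-negative strains plus a Gram-positive strain.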

E. coli ELZ4251 = test: Antibacterial activity, MIC, multi-drug resistant clinical isolate (Table 3); type: cell-based; details: Escherichia coli
Source text: The antibacterial activity from a microbroth dilution method may be presented as the minimum inhibitory concentration (MIC in μg/mL). The MIC value is the lowest concentration of drug which prevents macroscopically visible growth under test conditions.
Antibacterial activity of test compounds against E. coli ELZ4000 and E. coli ELZ4251 multi-drug resistant clinical isolates is shown in Table 3.

E. coli LZ3111 = test: Antibacterial activity, MIC, quinolone resistant strain (Table 2); type: cell-based; details: Escherichia coli, LZ3111, read-out: MIC LZ3111
Method in brief: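 Lowest concentration giving no macroscopically visible growth was taken as the MIC (μg/mL) after microbroth dilution testing.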

Structure (SMILES)	MIC [1]	MIC [2]	MIC [3]	MIC [4]	MIC [5]	MIC (K. pneumoniae MXX1232)	MIC (A. baumannii MXX2240)	MIC (E. coli 25922)	MIC (E. coli ELZ4251)	MIC (E. coli LZ3111)
CCCCNCc1cc2cc(-c3[nH]c(=O)c(C(=O)O)c(O)c3CC)ccc2n1C [Cpd 333, 6-(2-((butylamino)methyl)-1-methyl-1H-indol-5-yl)-5-ethyl-4-hydroxy-2-oxo-1,2-dihydropyridine-3-carboxylic acid]	< 1 µg/mL	3.5 to 12.5 µg/mL (≈ 8.81 to 31.4 µM)	12.5 to 150 µg/mL (≈ 31.4 to 377 µM)	< 1 µg/mL	< 1 µg/mL	12.5 to 150 µg/mL (≈ 31.4 to 377 µM)	1 to 3.5 µg/mL (≈ 2.52 to 8.81 µM)	< 1 µg/mL	12.5 to 150 µg/mL (≈ 31.4 to 377 µM)	3.5 to 12.5 µg/mL (≈ 8.81 to 31.4 µM)
CCCCCNCc1cc2cc(-c3[nH]c(=O)c(C(=O)O)c(O)c3CC)ccc2n1C [Cpd 334, 5-ethyl-4-hydroxy-6-(1-methyl-2-((pentylamino)methyl)-1H-indol-5-yl)-2-oxo-1,2-dihydropyridine-3-carboxylic acid]	< 1 µg/mL	12.5 to 150 µg/mL (≈ 30.4 to 365 µM)	12.5 to 150 µg/mL (≈ 30.4 to 365 µM)	1 to 3.5 µg/mL (≈ 2.43 to 8.51 µM)	1 to 3.5 µg/mL (≈ 2.43 to 8.51 µM)	12.5 to 150 µg/mL (≈ 30.4 to 365 µM)	12.5 to 150 µg/mL (≈ 30.4 to 365 µM)	< 1 µg/mL	12.5 to 150 µg/mL (≈ 30.4 to 365 µM)	12.5 to 150 µg/mL (≈ 30.4 to 365 µM)
CCCCCCNCc1cc2cc(-c3[nH]c(=O)c(C(=O)O)c(O)c3CC)ccc2n1C [Cpd 335, 5-ethyl-6-(2-((hexylamino)methyl)-1-methyl-1H-indol-5-yl)-4-hydroxy-2-oxo-1,2-dihydropyridine-3-carboxylic acid]	< 1 µg/mL	1 to 3.5 µg/mL (≈ 2.35 to 8.23 µM)	12.5 to 150 µg/mL (≈ 29.4 to 353 µM)	3.5 to 12.5 µg/mL (≈ 8.23 to 29.4 µM)	1 to 3.5 µg/mL (≈ 2.35 to 8.23 µM)	12.5 to 150 µg/mL (≈ 29.4 to 353 µM)	12.5 to 150 µg/mL (≈ 29.4 to 353 µM)	< 1 µg/mL	12.5 to 150 µg/mL (≈ 29.4 to 353 µM)	1 to 3.5 µg/mL (≈ 2.35 to 8.23 µM)
CCCCCCCNCc1cc2cc(-c3[nH]c(=O)c(C(=O)O)c(O)c3CC)ccc2n1C [Cpd 336, 5-ethyl-6-(2-((heptylamino)methyl)-1-methyl-1H-indol-5-yl)-4-hydroxy-2-oxo-1,2-dihydropyridine-3-carboxylic acid]	< 1 µg/mL	< 1 µg/mL	12.5 to 150 µg/mL (≈ 28.4 to 341 µM)	12.5 to 150 µg/mL (≈ 28.4 to 341 µM)	12.5 to 150 µg/mL (≈ 28.4 to 341 µM)	12.5 to 150 µg/mL (≈ 28.4 to 341 µM)	12.5 to 150 µg/mL (≈ 28.4 to 341 µM)	3.5 to 12.5 µg/mL (≈ 7.96 to 28.4 µM)	12.5 to 150 µg/mL (≈ 28.4 to 341 µM)	< 1 µg/mL
CCc1c(-c2ccc3c4c([nH]c3c2)CCN(CC)C4)[nH]c(=O)c(C(=O)O)c1O [Cpd 452, 5-ethyl-6-(2-ethyl-2,3,4,5-tetrahydro-1H-pyrido[4,3-b]indol-7-yl)-4-hydroxy-2-oxo-1,2-dihydropyridine-3-carboxylic acid]	< 1 µg/mL	12.5 to 150 µg/mL (≈ 32.8 to 393 µM)	12.5 to 150 µg/mL (≈ 32.8 to 393 µM)	12.5 to 150 µg/mL (≈ 32.8 to 393 µM)	1 to 3.5 µg/mL (≈ 2.62 to 9.18 µM)	12.5 to 150 µg/mL (≈ 32.8 to 393 µM)	12.5 to 150 µg/mL (≈ 32.8 to 393 µM)	< 1 µg/mL	–	12.5 to 150 µg/mL (≈ 32.8 to 393 µM)
CCc1c(-c2ccc3[nH]c(-c4ccc(C#N)cc4)cc3c2)[nH]c(=O)c(C(=O)O)c1O [Cpd 453, 6-(2-(4-cyanophenyl)-1H-indol-5-yl)-5-ethyl-4-hydroxy-2-oxo-1,2-dihydropyridine-3-carboxylic acid]	< 1 µg/mL	1 to 3.5 µg/mL (≈ 2.5 to 8.76 µM)	12.5 to 150 µg/mL (≈ 31.3 to 376 µM)	12.5 to 150 µg/mL (≈ 31.3 to 376 µM)	12.5 to 150 µg/mL (≈ 31.3 to 376 µM)	12.5 to 150 µg/mL (≈ 31.3 to 376 µM)	12.5 to 150 µg/mL (≈ 31.3 to 376 µM)	12.5 to 150 µg/mL (≈ 31.3 to 376 µM)	–	12.5 to 150 µg/mL (≈ 31.3 to 376 µM)
CCc1c(-c2ccc3[nH]c(-c4ccccc4)cc3c2)[nH]c(=O)c(C(=O)O)c1O [Cpd 454, 5-ethyl-4-hydroxy-2-oxo-6-(2-phenyl-1H-indol-5-yl)-1,2-dihydropyridine-3-carboxylic acid]	< 1 µg/mL	< 1 µg/mL	12.5 to 150 µg/mL (≈ 33.4 to 401 µM)	12.5 to 150 µg/mL (≈ 33.4 to 401 µM)	12.5 to 150 µg/mL (≈ 33.4 to 401 µM)	12.5 to 150 µg/mL (≈ 33.4 to 401 µM)	12.5 to 150 µg/mL (≈ 33.4 to 401 µM)	12.5 to 150 µg/mL (≈ 33.4 to 401 µM)	–	12.5 to 150 µg/mL (≈ 33.4 to 401 µM)
CCc1c(-c2ccc3[nH]c(-c4ccc(C(F)(F)F)cc4)cc3c2)[nH]c(=O)c(C(=O)O)c1O [Cpd 455, 5-ethyl-4-hydroxy-2-oxo-6-(2-(4-(trifluoromethyl)phenyl)-1H-indol-5-yl)-1,2-dihydropyridine-3-carboxylic acid]	< 1 µg/mL	3.5 to 12.5 µg/mL (≈ 7.91 to 28.3 µM)	12.5 to 150 µg/mL (≈ 28.3 to 339 µM)	12.5 to 150 µg/mL (≈ 28.3 to 339 µM)	12.5 to 150 µg/mL (≈ 28.3 to 339 µM)	12.5 to 150 µg/mL (≈ 28.3 to 339 µM)	12.5 to 150 µg/mL (≈ 28.3 to 339 µM)	12.5 to 150 µg/mL (≈ 28.3 to 339 µM)	–	12.5 to 150 µg/mL (≈ 28.3 to 339 µM)
